Series [1] concerns Echinochloa. Briefly: Pre-emergence test, Echinochloa. The series is classed as in vivo. The note with it: three weeks. How it is done:
(§1) Solvent: 5 parts by weight acetone
(§2) 1 part by weight benzyloxypolyglycol ether
(§3) To produce a suitable preparation of the particular active compound, 1 part by weight of such active compound is mixed with the stated amount of solvent, the stated amount of emulsifier is then added and the resulting concentrate is thereafter diluted with water to the desired final concentration.
(§4) Seeds of the test plants are sown in normal soil and, after 24 hours, watered with the preparation of the given active compound. It is expedient to keep constant the amount of water per unit area. The concentration of the particular active compound in the preparation is of no importance, only the amount of active compound applied per unit area being decisive. After three weeks, the degree of damage to the test plants is determined and characterized by the values 0-5, which have the following meaning:
(§5) The procedure of Example 1 is repeated, and the particular active compounds tested, the amounts applied, and the results obtained can be seen from the following Table 1D: […]

The subject of series [2] is Galinsoga. Briefly: Post-emergence test, Galinsoga. The series is classed as in vivo. The following applies: three weeks. How it is done: as §1, §2, §3
(§6) Test plants which have a height of about 5--15 cm. are sprayed with the preparation of the given active compound until just dew moist. After three weeks, the degree of damage to the plants is determined and characterized by the values 0-5, which have the following meaning:
(§7) The procedure of Example 2 is repeated, and the particular active compounds tested, and amounts applied, and the results obtained can be seen from the following Table 2E: […]

The test system of series [3] is dwarf beans. Briefly: Defoliant test. The note with it: 0.05% active compound. The series is classed as in vivo. How it is done: There is prepared, in the same manner as described in Example 1, an active compound preparation which contains 0.05% of
(1a") 3-methylthio-4-amino-6-phenyl-1,2,4-triazine-5-one.
A field of dwarf beans is sprayed with this preparation of the active compound so that the dwarf beans themselves are only just dripping wet.

The subject of series [4] is Oats. Briefly: Post-emergence test, oats. The series is classed as in vivo. The following applies: three weeks. How it is done:
as §1, §2, §3, §6, §7

The subject of series [5] is Wheat. Briefly: Pre-emergence test, wheat. The series is classed as in vivo. The following applies: three weeks. The protocol:
as §1, §2, §3, §4, §5

Series [6] deals with test plants. Briefly: Pre-emergence test, overall. The series is classed as in vivo. The note with it: Example 1. The protocol:
as §1, §2, §3, §4, §5

For series [7], the system named is Oats. Briefly: Pre-emergence test, oats. The series is classed as in vivo. The note with it: three weeks. The protocol: as §1, §2, §3, §4, §5
The test system of series [8] is Chenopodium. Briefly: Post-emergence test, Chenopodium. The series is classed as in vivo. The note with it: three weeks. The protocol:
as §1, §2, §3, §6, §7

For series [9], the system named is Sinapis. Briefly: Post-emergence test, Sinapis. The series is classed as in vivo. The following applies: three weeks. The protocol: as §1, §2, §3, §6, §7
In series [10] the test system is Sinapis. Briefly: Pre-emergence test, Sinapis. The series is classed as in vivo. The following applies: three weeks. The protocol:
as §1, §2, §3, §4, §5

Series [11] deals with Wheat. Briefly: Post-emergence test, wheat. The series is classed as in vivo. The note with it: 2.4 Kg/hectare, three weeks. The protocol:
as §1, §2, §3, §6, §7

The test system of series [12] is test plants. Briefly: Post-emergence test, overall. The series is classed as in vivo. The protocol: as §1, §2, §3, §6, §7
Series [13] relates to soybeans. Briefly: Pre-emergence selectivity, soybeans. The series is classed as in vivo.
Series [14] concerns Cotton. Briefly: Pre-emergence test, cotton. The series is classed as in vivo. The note with it: three weeks. How it is done:
as §1, §2, §3, §4, §5

In series [15] the test system is Cotton. Briefly: Post-emergence test, cotton. The note with it: 1.2 Kg/hectare, three weeks. The series is classed as in vivo. How it is done: as §1, §2, §3, §6, §7
The subject of series [16] is Echinochloa. Briefly: Post-emergence test, Echinochloa. The following applies: 1.2 Kg/hectare, three weeks. The series is classed as in vivo. The protocol:
as §1, §2, §3, §6, §7

For series [17], the system named is plants and weeds. Briefly: General herbicidal activity. The series is classed as in vivo.
Series [18] has as its system Alternaria. Briefly: Fungicidal activity. The series is classed as in vivo. The following applies: particularly against Alternaria.
In series [19] the test system is nematoeds. Briefly: Nematocidal activity on the soil. The series is classed as in vivo. The following applies: 1 Kg/hectare.
Series [20] has as its system cotton and tomatoes. Briefly: Pre-emergence selectivity, cotton and tomatoes. The series is classed as in vivo. The note with it: pre-emergence application.
The test system of series [21] is corn, potatoes, millet and peanuts. Briefly: Use in growing corn, potatoes, millet and peanuts. The series is classed as in vivo. The note with it: 0.3-2 kg/hectare.
For series [22], the system named is rats. Briefly: Oral toxicity in rats. The following applies: in words.
Series [23] is described as follows: Oral toxicity in rats. The note with it: rat, in vivo, po.

For the molecule `CCNc1nc(Cl)nc(NCC)n1` [A, 2,6-di-(ethylamino)-4-chloro-1,3,5-triazine, reference compound], the “degree of damage, Echinochloa” value in series [1] (5 kg/hectare) is 3-4. Moreover, the “degree of damage, Galinsoga” value in series [2] (0.1 % active compound) is on record as 4-5.

Turning to `CSc1nnc(-c2ccccc2)c(=O)n1N` [Compound 1a, 3-methylthio-4-amino-6-phenyl-1,2,4-triazine-5-one], in series [3], the “harvesting of the beans” value is listed as “quite considerably facilitated”. In addition, in series [3] (after 8 days), the “drying up of leaves” value is reported as “completely dried up”. The “degree of damage, Oats” value in [4] (1.2 Kg/hectare) and in series [4] (2.4 Kg/hectare) was 4-5 each time. The “degree of damage, Echinochloa” value in [1] (1.25 kg/hectare) is on record as 4-5.

Consider `CSc1nnc(C2CCCCC2)c(=O)n1N` [Compound 2, 3-methylthio-4-amino-6-cyclohexyl-1,2,4-triazine-5-one], for which the “degree of damage, Wheat” value in series [5] (1.25 kg/hectare) is listed as 4-5. In series [6], the “kind of herbicidal action” value was “pronouncedly total-herbicidal action”. Further, in series [7] (1.25 kg/hectare), the “degree of damage, Oats” value is listed as 4-5.

On to `CCSc1nnc(-c2ccccc2)c(=O)n1N` [Compound 3, 3-ethylthio-4-amino-6-phenyl-1,2,4-triazine-5-one], for which the “kind of herbicidal action” value in series [6] is “selectively herbicidal action in wheat and cotton”.

Turning to `Nn1c(N2CCCCC2)nnc(-c2ccccc2)c1=O` [Compound 25, 3-piperidino-4-amino-6-phenyl-1,2,4-triazine-5-one], the “degree of damage, Chenopodium” value in series [8] (10 Kg/hectare) is on record as 3-4. For the same molecule, the “degree of damage, Sinapis” value in series [9] (10 Kg/hectare) was 4-5.

Take `CCNc1nnc(C(C)C)c(=O)n1N` [Compound 177, 3-ethylamino-4-amino-6-isopropyl-1,2,4-triazine-5-one]: the “degree of damage, Sinapis” value in series [10] (5 kg/hectare) is 4-5. For the same molecule, the “degree of damage, Oats” value in series [4] (2.4 Kg/hectare) and in [7] (2.5 kg/hectare) was 4-5 each time. In series [2] (2.4 Kg/hectare), the “degree of damage, Galinsoga” value is 4-5. For the same molecule, the “degree of damage, Wheat” value in series [11] is given as 4-5.

`CSc1nnc(C(C)C)c(=O)n1NC(O)C(Cl)(Cl)Cl` (stereo not drawn) [Compound 191, 3-methylthio-4-(β-trichloro-α-hydroxy-ethyl)-amino-6-isopropyl-1,2,4-triazine-5-one]: the “degree of damage, Sinapis” value in [9] (1.2 Kg/hectare) is 4-5.

In the case of `CSc1nnc(C(C)(C)C)c(=O)n1N=C1CCCCC1` [Compound 221, 3-methylthio-4-(cyclohexylidene-amino)-6-tert.-butyl-1,2,4-triazine-5-one], the “degree of damage, Wheat” value in series [5] (1.25 kg/hectare) and in [11] was 4-5 in each case. Further, the general herbicidal activity entry in series [12] was “very good general herbicidal activity”. For the same molecule, the selectivity result in series [13] is given as “selective for soybeans”.

On to `CSc1nnc(C(C)C)c(=O)n1N=C1CCCC1` [Compound 223, 3-methylthio-4-(cyclopentylidene-amino)-6-isopropyl-1,2,4-triazine-5-one], for which the “degree of damage, Cotton” value in series [14] (2.5 kg/hectare), in series [14] (5 kg/hectare) and in [15] was 4-5 each time. For the same molecule, the “degree of damage, Wheat” value in series [5] (2.5 kg/hectare) and in series [5] (5 kg/hectare) was 4-5 in each case. Also, the “degree of damage, Sinapis” value in [10] (1.25 kg/hectare) is 4-5. For the same molecule, in series [8] (1.2 Kg/hectare), the “degree of damage, Chenopodium” value is on record as 4-5. For the same molecule, in series [7] (1.25 kg/hectare), the “degree of damage, Oats” value is given as 4-5. The “degree of damage, Echinochloa” value in series [16] is 4-5. The usefulness as herbicide entry in series [17] (compared with compound 221) is “similarly useful”.

In the case of `CSc1nnc(C(C)(C)C)c(=O)n1N=Cc1ccccc1` [Compound 236], the fungicidal activity result in series [18] is “exhibits fungicidal activity, particularly against Alternaria”. Also, in series [19], the killing of nematodes result is reported as “kills nematoeds”. Further, the selectivity entry in [20] was “selective as to cotton and tomatoes”. In addition, in [21], the “effectiveness in growing crops” value is “effective in growing corn, potatoes, millet and peanuts”. The toxicity result in [22] is recorded as “quite low”. In addition, the LD50 in [23] amounted to 1000 mg/kg. Also, the general properties entry in [17] (compared with compounds 221, 222, 223) is reported as “same general properties”.

For the origin of these results see patent US3966715A, “Herbicidal agents” (Bayer Aktiengesellschaft, priority 1966, dated 1976).
